Reference: publication PMC12715762, “Discovery of VU6052254: A Novel, Potent M1 Positive Allosteric Modulator” (ACS Chemical Neuroscience, 2025)
pIC50: −log10 of the molar value.

Experiments:
[1] = result in words; cited from earlier work
[2] = plasma protein binding, equilibrium dialysis (cyno); format: in vitro ADME; conditions: cynomolgus monkey, pH 7.4, cyno (c), read-out: fu,plasma
Experimental: Plasma protein binding and Brain homogenate binding: Determination of fraction unbound (f u) in plasma was conducted in vitro via equilibrium dialysis using HTDialysis (HTD) membrane plates. The top half of the plate was filled with 100 uL of Dubelco’s Phosphate Buffered Saline, pH 7.4 (DPBS). Compounds were diluted into plasma from each species (5 µM final concentration), which was aliquoted in triplicate to the ‘bottom half’ of the prepared HTD plate wells. The HTD plate was sealed and incubated for 6 hours at 37 °C. Following incubation, each well (both top and bottom halves) were transferred (20 µL) to the corresponding wells of a 96-shallow-well (V-bottom) plate. […]
The unbound fraction (f u) was calculated following the equation below, and mean values for each species were calculated from 3 replicates.
A similar approach was used to determine the degree of brain homogenate binding, which employed the same methodology and procedure with the following modifications: 1) a final compound concentration of 1 μM was used, 2) naïve rat brains were homogenized in DPBS (1:3 composition of brain: DPBS, w/w) using a Mini-Bead Beater™ machine in order to obtain brain homogenate, which was then treated in the same manner as the plasma samples in the previously described plasma protein binding assay. Fraction unbound for both plasma and brain samples was determined using Equation 4. […]

CYP 2C9 = CYP 2C9 (Homo sapiens, UniProt P11712); test: CYP450 inhibition; format: in vitro ADME
CYP 2C9, sequence (P11712 whole entry): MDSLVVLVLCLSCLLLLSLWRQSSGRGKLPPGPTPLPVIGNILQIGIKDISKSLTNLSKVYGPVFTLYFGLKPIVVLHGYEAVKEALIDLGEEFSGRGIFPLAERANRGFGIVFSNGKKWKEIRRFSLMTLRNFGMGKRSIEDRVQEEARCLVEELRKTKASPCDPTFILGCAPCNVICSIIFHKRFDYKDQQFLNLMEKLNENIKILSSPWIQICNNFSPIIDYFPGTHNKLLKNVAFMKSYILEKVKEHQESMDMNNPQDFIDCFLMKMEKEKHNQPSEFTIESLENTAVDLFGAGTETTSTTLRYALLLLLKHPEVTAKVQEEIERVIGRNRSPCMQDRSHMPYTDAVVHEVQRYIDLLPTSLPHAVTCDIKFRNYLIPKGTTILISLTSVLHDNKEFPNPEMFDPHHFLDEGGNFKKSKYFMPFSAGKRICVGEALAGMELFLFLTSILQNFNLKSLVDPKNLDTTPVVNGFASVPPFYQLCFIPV

CYP 3A4 = CYP 3A4 (Homo sapiens, UniProt P08684); test: CYP450 inhibition; format: in vitro ADME
CYP 3A4, sequence (P08684 whole entry): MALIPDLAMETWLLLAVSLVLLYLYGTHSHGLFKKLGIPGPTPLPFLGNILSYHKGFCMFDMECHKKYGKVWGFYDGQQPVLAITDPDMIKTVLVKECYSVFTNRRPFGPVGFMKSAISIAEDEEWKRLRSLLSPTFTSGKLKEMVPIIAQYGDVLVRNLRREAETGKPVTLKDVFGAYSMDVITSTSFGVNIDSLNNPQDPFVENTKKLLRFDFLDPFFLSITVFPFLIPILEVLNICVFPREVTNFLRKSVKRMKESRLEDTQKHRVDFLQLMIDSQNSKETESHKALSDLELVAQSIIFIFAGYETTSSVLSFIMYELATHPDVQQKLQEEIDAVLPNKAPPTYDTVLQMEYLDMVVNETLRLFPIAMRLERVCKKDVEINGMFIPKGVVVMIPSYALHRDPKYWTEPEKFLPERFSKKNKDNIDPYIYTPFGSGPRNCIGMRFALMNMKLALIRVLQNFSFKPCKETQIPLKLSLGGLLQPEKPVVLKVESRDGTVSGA

hERG = molecular target: T1, hERG (Homo sapiens, UniProt Q12809); test: functional hERG manual patch clamp (MPC) assay; format: cell-based
T1 construct: Charles River
T1 sequence (Q12809 whole entry): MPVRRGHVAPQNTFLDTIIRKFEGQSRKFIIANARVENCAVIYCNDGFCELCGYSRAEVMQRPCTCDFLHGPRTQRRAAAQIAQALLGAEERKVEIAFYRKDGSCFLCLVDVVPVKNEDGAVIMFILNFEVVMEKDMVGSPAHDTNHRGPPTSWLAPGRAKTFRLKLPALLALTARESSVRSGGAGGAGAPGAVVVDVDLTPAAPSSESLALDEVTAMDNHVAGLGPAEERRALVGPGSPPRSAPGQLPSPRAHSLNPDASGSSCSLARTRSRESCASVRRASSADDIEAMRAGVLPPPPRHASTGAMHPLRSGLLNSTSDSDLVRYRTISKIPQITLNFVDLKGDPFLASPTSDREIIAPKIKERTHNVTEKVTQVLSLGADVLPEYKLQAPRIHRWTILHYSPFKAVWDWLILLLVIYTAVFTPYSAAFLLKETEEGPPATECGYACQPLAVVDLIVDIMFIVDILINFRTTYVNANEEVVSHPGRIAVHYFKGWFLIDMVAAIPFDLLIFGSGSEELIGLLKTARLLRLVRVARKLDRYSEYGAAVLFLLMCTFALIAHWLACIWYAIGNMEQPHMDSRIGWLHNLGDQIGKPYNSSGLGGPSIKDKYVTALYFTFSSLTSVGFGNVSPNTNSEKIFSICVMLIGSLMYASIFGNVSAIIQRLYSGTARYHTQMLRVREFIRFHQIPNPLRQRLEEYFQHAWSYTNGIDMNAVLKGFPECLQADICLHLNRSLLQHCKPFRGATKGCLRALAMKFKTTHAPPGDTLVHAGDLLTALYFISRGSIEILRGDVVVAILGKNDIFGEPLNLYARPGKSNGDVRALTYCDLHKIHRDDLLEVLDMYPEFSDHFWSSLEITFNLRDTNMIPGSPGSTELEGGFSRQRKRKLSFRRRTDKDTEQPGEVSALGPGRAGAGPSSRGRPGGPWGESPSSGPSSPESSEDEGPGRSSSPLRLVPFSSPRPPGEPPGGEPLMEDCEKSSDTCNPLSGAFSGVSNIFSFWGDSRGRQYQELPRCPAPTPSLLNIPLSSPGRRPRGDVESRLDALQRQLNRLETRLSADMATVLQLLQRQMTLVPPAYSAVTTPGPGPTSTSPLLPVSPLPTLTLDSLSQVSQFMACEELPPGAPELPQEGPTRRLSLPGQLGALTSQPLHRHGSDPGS

[3] = tested on: mouse native tissue layer V medial prefrontal cortex (mPFC); test: electrophysiology (fEPSP, LTD) in layer V medial prefrontal cortex; conditions: 10 μM
Description: Based on our previous experience, ,− , PAM 7 is expected to display robust pro-cognitive efficacy and maintain activity dependence of prefrontal cortical (PFC) function.

[4] = human PK and dose predictions (geometric mean of six methods)
Experimental: The predicted dose for 7 ranged from 32 to 84 mg QD. Based on this analysis, PAM 7 was advanced to safety and ADME studies.

GSH trapping = format: in vitro ADME; conditions: human microsomes; result in words
3A4 = 3A4 (Homo sapiens, UniProt P08684); test: CYP450 phenotyping, recombinant enzymes; format: in vitro ADME; conditions: 3A4, panel of eight recombinant enzymes
3A4, sequence (P08684 whole entry): as the sequence (P08684 whole entry) above

2B6 = test: CYP450 induction in human hepatocytes (three donors); format: cell-based; conditions: 10 μM, human hepatocytes from three donors
Adrenergic α1A = Adrenergic α1A (Homo sapiens, UniProt P35348); test: Eurofins radioligand binding
Adrenergic α1B = Adrenergic α1B (Homo sapiens, UniProt P35368); test: Eurofins radioligand binding
Adrenergic α1D = Adrenergic α1D (Homo sapiens, UniProt P25100); test: Eurofins radioligand binding
Adrenergic α2A = molecular target: T2, Adrenergic α2A (Homo sapiens, UniProt P08913); test: Eurofins radioligand binding
T2 construct: purchased Eurofins (contract screen, Study TW04-0011004)
T2 sequence (P08913 whole entry): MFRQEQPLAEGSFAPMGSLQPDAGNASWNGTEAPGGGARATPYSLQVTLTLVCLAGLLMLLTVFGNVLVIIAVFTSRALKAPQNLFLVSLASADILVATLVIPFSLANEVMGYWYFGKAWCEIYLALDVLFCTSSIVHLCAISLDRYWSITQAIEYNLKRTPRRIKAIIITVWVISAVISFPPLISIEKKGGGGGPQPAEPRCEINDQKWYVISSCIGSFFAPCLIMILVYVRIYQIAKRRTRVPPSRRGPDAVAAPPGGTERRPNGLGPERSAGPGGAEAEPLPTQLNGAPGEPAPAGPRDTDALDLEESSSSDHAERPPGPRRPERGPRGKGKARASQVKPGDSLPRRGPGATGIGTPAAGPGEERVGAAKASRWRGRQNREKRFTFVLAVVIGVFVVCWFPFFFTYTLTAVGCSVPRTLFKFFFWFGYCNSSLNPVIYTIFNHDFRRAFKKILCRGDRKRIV

[5] = tested on: Calcium Channel L-Type, Dihydropyridine; test: Eurofins radioligand binding; conditions: Rat
Calcium Channel N-Type = Calcium Channel N-Type (Rattus norvegicus, UniProt Q02294); test: Eurofins radioligand binding
Dopamine D1 = Dopamine D1 (Homo sapiens, UniProt P21728); test: Eurofins radioligand binding
Dopamine D1, sequence (P21728 whole entry): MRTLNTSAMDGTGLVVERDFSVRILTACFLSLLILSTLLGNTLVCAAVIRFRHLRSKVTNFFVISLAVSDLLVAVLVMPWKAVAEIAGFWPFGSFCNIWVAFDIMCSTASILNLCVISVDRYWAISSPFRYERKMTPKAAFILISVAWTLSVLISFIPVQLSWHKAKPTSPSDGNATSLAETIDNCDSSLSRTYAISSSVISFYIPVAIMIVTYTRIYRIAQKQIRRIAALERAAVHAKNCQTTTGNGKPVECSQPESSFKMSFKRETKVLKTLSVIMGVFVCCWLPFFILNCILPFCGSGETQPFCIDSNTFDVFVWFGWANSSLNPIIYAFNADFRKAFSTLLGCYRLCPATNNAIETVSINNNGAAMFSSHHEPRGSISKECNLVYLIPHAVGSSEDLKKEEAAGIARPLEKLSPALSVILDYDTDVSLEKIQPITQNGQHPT

Dopamine D4.2 = Dopamine D4.2 (Homo sapiens, UniProt P21917, DEL265-296); test: Eurofins radioligand binding
Dopamine D4.2, sequence (P21917 with tags, fused parts or gaps DEL265-296): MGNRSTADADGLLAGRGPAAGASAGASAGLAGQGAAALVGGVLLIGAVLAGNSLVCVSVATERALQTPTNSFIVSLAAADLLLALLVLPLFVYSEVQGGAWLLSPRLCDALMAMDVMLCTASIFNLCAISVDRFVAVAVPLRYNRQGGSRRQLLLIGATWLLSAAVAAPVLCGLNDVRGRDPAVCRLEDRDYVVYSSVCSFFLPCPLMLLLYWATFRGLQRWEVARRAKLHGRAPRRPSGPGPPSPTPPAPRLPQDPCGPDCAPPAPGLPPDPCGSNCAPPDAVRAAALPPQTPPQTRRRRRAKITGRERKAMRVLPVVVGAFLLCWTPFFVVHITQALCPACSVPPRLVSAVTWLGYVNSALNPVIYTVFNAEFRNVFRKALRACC

[6] = molecular target: Epidermal Growth Factor (EGF) (Homo sapiens, UniProt P00533); test: Eurofins radioligand binding
Glutamate, Kainate = test: Eurofins radioligand binding; conditions: Rat
Glutamate, NMDA, Agonism = test: Eurofins radioligand binding; conditions: Rat
Interleukin IL-1 R1 = Interleukin IL-1 R1 (Homo sapiens, UniProt P14778); test: Eurofins radioligand binding
Melatonin MT1 = Melatonin MT1 (Homo sapiens, UniProt P48039); test: Eurofins radioligand binding
Muscarinic M1 = Muscarinic M1 (Homo sapiens, UniProt P11229); test: Eurofins radioligand binding
Opiate δ1 (OP1, DOP) = Opiate δ1 (OP1, DOP) (Homo sapiens, UniProt P41143); test: Eurofins radioligand binding
Opiate δ1 (OP1, DOP), sequence (P41143 whole entry): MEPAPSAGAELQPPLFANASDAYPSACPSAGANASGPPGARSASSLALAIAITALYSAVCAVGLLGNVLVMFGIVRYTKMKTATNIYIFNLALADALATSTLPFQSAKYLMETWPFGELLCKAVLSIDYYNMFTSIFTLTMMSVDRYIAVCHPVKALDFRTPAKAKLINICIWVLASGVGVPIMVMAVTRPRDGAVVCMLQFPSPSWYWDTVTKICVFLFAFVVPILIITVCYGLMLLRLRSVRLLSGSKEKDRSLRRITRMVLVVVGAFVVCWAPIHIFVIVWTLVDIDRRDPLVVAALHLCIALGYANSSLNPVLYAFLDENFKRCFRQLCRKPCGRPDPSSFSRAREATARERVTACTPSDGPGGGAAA

Phorbol Ester = test: Eurofins radioligand binding; conditions: Mouse
[7] = molecular target: Platelet Activating Factor (PAF) (Homo sapiens, UniProt P25105); test: Eurofins radioligand binding
Platelet Activating Factor (PAF), sequence (P25105 whole entry): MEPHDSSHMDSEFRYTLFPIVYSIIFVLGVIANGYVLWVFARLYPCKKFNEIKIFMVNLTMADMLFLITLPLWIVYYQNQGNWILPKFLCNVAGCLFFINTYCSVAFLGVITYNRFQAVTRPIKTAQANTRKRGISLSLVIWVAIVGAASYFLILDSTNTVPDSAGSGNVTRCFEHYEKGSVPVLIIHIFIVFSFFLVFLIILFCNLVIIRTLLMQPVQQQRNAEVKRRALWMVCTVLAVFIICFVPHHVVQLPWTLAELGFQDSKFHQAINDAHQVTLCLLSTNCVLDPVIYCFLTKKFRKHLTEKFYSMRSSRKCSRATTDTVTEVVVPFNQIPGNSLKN

Prostanoid EP4 = Prostanoid EP4 (Homo sapiens, UniProt P35408); test: Eurofins radioligand binding
Prostanoid EP4, sequence (P35408 whole entry): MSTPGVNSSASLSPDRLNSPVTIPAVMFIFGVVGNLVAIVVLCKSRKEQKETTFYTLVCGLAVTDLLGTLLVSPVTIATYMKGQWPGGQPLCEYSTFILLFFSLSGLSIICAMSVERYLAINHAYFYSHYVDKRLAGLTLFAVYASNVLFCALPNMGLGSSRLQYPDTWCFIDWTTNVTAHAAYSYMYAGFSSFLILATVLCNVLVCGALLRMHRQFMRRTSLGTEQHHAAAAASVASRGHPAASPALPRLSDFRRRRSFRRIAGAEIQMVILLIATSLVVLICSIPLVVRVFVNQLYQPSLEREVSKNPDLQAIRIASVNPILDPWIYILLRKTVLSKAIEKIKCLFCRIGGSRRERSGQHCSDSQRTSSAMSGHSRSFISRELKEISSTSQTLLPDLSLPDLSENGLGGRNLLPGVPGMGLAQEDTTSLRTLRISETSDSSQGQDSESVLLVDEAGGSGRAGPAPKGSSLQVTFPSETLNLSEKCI

Rolipram = test: Eurofins radioligand binding; conditions: Rat
Sigma σ1 = Sigma σ1 (Homo sapiens, UniProt Q99720); test: Eurofins radioligand binding
Sigma σ1, sequence (Q99720 whole entry): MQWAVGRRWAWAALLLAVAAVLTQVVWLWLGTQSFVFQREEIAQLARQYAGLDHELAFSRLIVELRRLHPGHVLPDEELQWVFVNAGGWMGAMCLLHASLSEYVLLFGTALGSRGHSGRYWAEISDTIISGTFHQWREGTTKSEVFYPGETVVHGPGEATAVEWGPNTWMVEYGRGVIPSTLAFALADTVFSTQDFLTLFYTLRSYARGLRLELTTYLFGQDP

Transporter, GABA = Transporter, GABA (Rattus norvegicus, UniProt P23978); test: Eurofins radioligand binding

Question: Which “cholinergic toxicity in Phase I SAD trial” value [1] does the source give for `Cn1cc2c(-c3cc(F)c(CN4Cc5ncccc5C4=O)c(F)c3)cccc2n1` [compound 1, reference compound] here?
Answer: without any observed cholinergic toxicity

Question: What does the source list for `Cn1cc2c(-c3cc(F)c(CN4Cc5ncccc5C4=O)c(F)c3)ccc(C(C)(C)O)c2n1` [compound 7]?
Answer: fraction unbound at 6 h, 5 µM [2]: 0.06; pIC50 (CYP 2C9): < 4.52; pIC50 (CYP 3A4): < 4.52; pIC50 (hERG): < 4.52; PPR [3]: 112%; field excitatory postsynaptic potentials (fEPSPs), % baseline [3]: 86 % baseline; predicted human dose ([4]; QD): 32 to 84 mg; predicted human CLp ([4]; geometric mean of six methods): 2.6 mL/min/kg; predicted human Vss ([4]; geometric mean of six methods): 1.16 L/kg; predicted human oral bioavailability ([4]; geometric mean of six methods): 79%; predicted human t1/2 ([4]; geometric mean of six methods): 5.1 h; GSH trapping (GSH trapping): no evidence of GSH trapping; contribution to metabolism, CYP450 phenotyping (3A4): 96.8%; 2B6 induction (2B6): 11.5%; inhibition at 10 µM (Adrenergic α1A): 13%; inhibition at 10 µM (Adrenergic α1B): 8%; inhibition at 10 µM (Adrenergic α1D): 11%; pIC50 (Adrenergic α2A): 5.49; inhibition at 10 µM (Adrenergic α2A; Adrenergic α2A, Human): 75%; % Inhibition at 10 µM [5]: 59%; inhibition at 10 µM (Calcium Channel N-Type): -11%; inhibition at 10 µM (Dopamine D1): 6%; inhibition at 10 µM (Dopamine D4.2): -5%; inhibition at 10 µM [6]: -14%; % Inhibition at 10 µM (Glutamate, Kainate): -2%; % Inhibition at 10 µM (Glutamate, NMDA, Agonism): -3%; inhibition at 10 µM (Interleukin IL-1 R1): -10%; inhibition at 10 µM (Melatonin MT1): -1%; inhibition at 10 µM (Muscarinic M1): 18%; inhibition at 10 µM (Opiate δ1 (OP1, DOP)): -2%; % Inhibition at 10 µM (Phorbol Ester): 12%; inhibition at 10 µM [7]: 1%; inhibition at 10 µM (Prostanoid EP4): 21%; % Inhibition at 10 µM (Rolipram): 61%; inhibition at 10 µM (Sigma σ1): 6%; inhibition at 10 µM (Transporter, GABA): -12%
